Results reported in PubChem BioAssay AID330 (DTP/NCI, 2004).
Inconclusive results and toxic doses are left out.

Tested on: P388 leukemia ip, CD2F1 mice, survival T/C
Experiment: NCI In Vivo Anticancer Drug Screen. Data for tumor model P388 Leukemia (intraperitoneal) in CD2F1 (CDF1) mice
Details: endpoint: median survival time, higher = longer survival
Summary of the method: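 Mice carrying the transplanted tumor received test compound or vehicle. Survival was recorded in each group, and the value is the treated-group measurement divided by that of the vehicle-treated control group.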

[1] = dose: 100.0 mg/kg/injection, schedule: Q01DX009 (ip), vehicle: Klucel (hydroxypropylcellulose) (HPC)
[2] = dose: 50.0 mg/kg/injection, schedule: Q01DX009 (ip), vehicle: saline with Tween-80
[3] = dose: 100.0 mg/kg/injection, schedule: Q01DX009 (ip), vehicle: saline with Tween-80
[4] = dose: 50.0 mg/kg/injection, schedule: Q01DX009 (ip), vehicle: saline
[5] = dose: 100.0 mg/kg/injection, schedule: Q01DX009 (ip), vehicle: saline
[6] = dose: 200.0 mg/kg/injection, schedule: Q01DX009 (ip), vehicle: saline

## COc1cccc(N=C(C2=C(O)c3ccccc3C2=O)c2ccccc2)c1
dose: 100.0 mg/kg/injection, schedule: Q04DX002 (ip), vehicle: saline with Tween-80
  T/C: 101 % of control
dose: 200.0 mg/kg/injection, schedule: Q04DX002 (ip), vehicle: saline with Tween-80
  T/C: 97 % of control
dose: 400.0 mg/kg/injection, schedule: Q04DX002 (ip), vehicle: saline with Tween-80
  T/C: 100 % of control

## COc1ccc(CC(C(=O)NN)S(=O)(=O)NC(C)(C)C)cc1OC (stereo not given)
dose: 100.0 mg/kg/injection, schedule: Q04DX003 (ip), vehicle: Klucel (hydroxypropylcellulose) (HPC)
  T/C: 98 % of control
dose: 200.0 mg/kg/injection, schedule: Q04DX003 (ip), vehicle: Klucel (hydroxypropylcellulose) (HPC)
  T/C: 98 % of control
dose: 400.0 mg/kg/injection, schedule: Q04DX003 (ip), vehicle: Klucel (hydroxypropylcellulose) (HPC)
  T/C: 95 % of control

## CCOC(=O)C(=O)c1ccc(N(C)C)cc1
[1]
  T/C: 107 % of control
dose: 200.0 mg/kg/injection, schedule: Q01DX009 (ip), vehicle: Klucel (hydroxypropylcellulose) (HPC)
  T/C: 100 % of control
dose: 400.0 mg/kg/injection, schedule: Q01DX009 (ip), vehicle: Klucel (hydroxypropylcellulose) (HPC)
  T/C: 97 % of control

## CN(C)c1cc(N(C)C)c2ccccc2n1
dose: 12.5 mg/kg/injection, schedule: Q01DX009 (ip), vehicle: Klucel (hydroxypropylcellulose) (HPC)
  T/C: 102 % of control
dose: 25.0 mg/kg/injection, schedule: Q01DX009 (ip), vehicle: Klucel (hydroxypropylcellulose) (HPC)
  T/C: 106 % of control
[1]
  T/C: 97 % of control

## OC(c1ccncc1)c1cc(Cl)ccc1Cl (stereo not given)
[2]
  T/C: 94 % of control
[3]
  T/C: 100 % of control
dose: 200.0 mg/kg/injection, schedule: Q01DX009 (ip), vehicle: saline with Tween-80
  T/C: 108 % of control

## C=C1C(=O)OC2C3[C@@]4(C)O[C@H]4[C@H]4O[C@@]34[C@](C)(O)CC(OC(C)=O)[C@@H]12 (stereo not given in full)
dose: 1687.5 micrograms/kg/injection, schedule: Q01DX005 (ip), vehicle: Klucel (hydroxypropylcellulose) (HPC)
  T/C: 104 % of control
dose: 3375.0 micrograms/kg/injection, schedule: Q01DX005 (ip), vehicle: Klucel (hydroxypropylcellulose) (HPC)
  T/C: 108 % of control
dose: 6750.0 micrograms/kg/injection, schedule: Q01DX005 (ip), vehicle: Klucel (hydroxypropylcellulose) (HPC)
  T/C: 100 % of control
dose: 13500.0 micrograms/kg/injection, schedule: Q01DX005 (ip), vehicle: Klucel (hydroxypropylcellulose) (HPC)
  T/C: 106 % of control

## NC(N)=NCCC(Cl)C(=O)O (stereo not given)
dose: 50.0 mg/kg/injection, schedule: Q01DX005 (ip), vehicle: saline
  T/C: 101 % of control
dose: 100.0 mg/kg/injection, schedule: Q01DX005 (ip), vehicle: saline
  T/C: 102 % of control
dose: 200.0 mg/kg/injection, schedule: Q01DX005 (ip), vehicle: saline
  T/C: 97 % of control

## COC(=O)[C@@H]1c2cc3c(c(O)c2[C@@H](OC2OC(C)C(OC)C(C)(OC)C2OC)C[C@]1(C)O)C(=O)c1c(O)cc2c(c1C3=O)O[C@H]1O[C@]2(C)[C@H](O)[C@@H](N(C)C)[C@@H]1O (stereo not given in full)
dose: 0.12 mg/kg/injection, schedule: Q01DX009 (ip), vehicle: saline
  T/C: 120 % of control
dose: 0.25 mg/kg/injection, schedule: Q01DX009 (ip), vehicle: other
  T/C: 122 % of control
dose: 0.25 mg/kg/injection, schedule: Q01DX010 (ip), vehicle: saline
  T/C: 110 % of control
dose: 0.25 mg/kg/injection, schedule: Q04DX003 (ip), vehicle: other
  T/C: 116 % of control
dose: 0.25 mg/kg/injection, schedule: Q04DX003 (ip), vehicle: saline
  T/C: 117 % of control
dose: 0.43 mg/kg/injection, schedule: Q04DX003 (ip), vehicle: water
  T/C: 112 % of control
dose: 0.5 mg/kg/injection, schedule: Q01DX009 (ip), vehicle: other
  T/C: 118 % of control
dose: 0.5 mg/kg/injection, schedule: Q01DX010 (ip), vehicle: saline
  T/C: 105 % of control
dose: 0.5 mg/kg/injection, schedule: Q04DX003 (ip), vehicle: other
  T/C: 109 % of control
dose: 0.52 mg/kg/injection, schedule: Q04DX003 (ip), vehicle: clinical formulation
  T/C: 119 % of control
dose: 0.72 mg/kg/injection, schedule: Q04DX003 (ip), vehicle: water
  T/C: 115 % of control
dose: 0.86 mg/kg/injection, schedule: Q04DX003 (ip), vehicle: clinical formulation
  T/C: 121 % of control
dose: 1.0 mg/kg/injection, schedule: Q01DX009 (ip), vehicle: other
  T/C: 91 % of control
dose: 1.0 mg/kg/injection, schedule: Q01DX009 (ip), vehicle: saline + alcohol
  T/C: 86 % of control
dose: 1.0 mg/kg/injection, schedule: Q01DX009 (ip), vehicle: saline
  T/C: 150 % of control
dose: 1.0 mg/kg/injection, schedule: Q01DX010 (ip), vehicle: saline
  T/C: 100 % of control
dose: 1.44 mg/kg/injection, schedule: Q04DX003 (ip), vehicle: clinical formulation
  T/C: 114 % of control
dose: 2.4 mg/kg/injection, schedule: Q04DX003 (ip), vehicle: clinical formulation
  T/C: 107 % of control
dose: 3.33 mg/kg/injection, schedule: Q04DX003 (ip), vehicle: water
  T/C: 120 % of control
dose: 125.0 micrograms/kg/injection, schedule: Q01DX009 (ip), vehicle: other
  T/C: 111 % of control
dose: 375.0 micrograms/kg/injection, schedule: Q04DX003 (ip), vehicle: saline
  T/C: 121 % of control
dose: 500.0 micrograms/kg/injection, schedule: Q04DX003 (ip), vehicle: saline
  T/C: 118 % of control
dose: 1000.0 micrograms/kg/injection, schedule: Q01DX009 (ip), vehicle: saline
  T/C: 114 % of control
dose: 1500.0 micrograms/kg/injection, schedule: Q01DX009 (ip), vehicle: saline
  T/C: 92 % of control
dose: 3000.0 micrograms/kg/injection, schedule: Q04DX003 (ip), vehicle: saline
  T/C: 91 % of control

## Cc1nc2ccncn2n1
dose: 100.0 mg/kg/injection, schedule: Q04DX003 (ip), vehicle: saline
  T/C: 99 % of control
dose: 200.0 mg/kg/injection, schedule: Q04DX003 (ip), vehicle: saline
  T/C: 95 % of control
dose: 400.0 mg/kg/injection, schedule: Q04DX003 (ip), vehicle: saline
  T/C: 93 % of control

## O=c1nc2n(CCO)c3ccccc3cc-2c(=O)[nH]1
dose: 60.0 mg/kg/injection, schedule: Q01DX005 (ip), vehicle: saline
  T/C: 96 % of control
dose: 120.0 mg/kg/injection, schedule: Q01DX005 (ip), vehicle: saline
  T/C: 95 % of control

## CCCOCC(=O)OC
[4]
  T/C: 98 % of control
[5]
  T/C: 99 % of control
[6]
  T/C: 100 % of control

## CC(=O)NC1CCCCC1C1CCC(N)CC1 (stereo not given)
dose: 50.0 mg/kg/injection, schedule: Q01DX005 (ip), vehicle: saline with Tween-80
  T/C: 99 % of control
dose: 100.0 mg/kg/injection, schedule: Q01DX005 (ip), vehicle: saline with Tween-80
  T/C: 102 % of control
dose: 200.0 mg/kg/injection, schedule: Q01DX005 (ip), vehicle: saline with Tween-80
  T/C: 87 % of control

## COc1cc2cnc3c4cc(OC)c(OC)cc4c(O)cc3c2cc1OC
dose: 3.12 mg/kg/injection, schedule: Q01DX005 (ip), vehicle: Klucel (hydroxypropylcellulose) (HPC)
  T/C: 98 % of control
dose: 6.25 mg/kg/injection, schedule: Q01DX005 (ip), vehicle: Klucel (hydroxypropylcellulose) (HPC)
  T/C: 106 % of control
dose: 12.5 mg/kg/injection, schedule: Q01DX005 (ip), vehicle: Klucel (hydroxypropylcellulose) (HPC)
  T/C: 98 % of control

## CCOC(=O)N1CC2C=CC1C(C(C)=O)C2 (stereo not given)
[4]
  T/C: 110 % of control
[5]
  T/C: 109 % of control
[6]
  T/C: 109 % of control

## CC1=C(O)C(=O)C=C2C1=CC=C1[C@@]2(C)CC[C@@]2(C)[C@@H]3C[C@](C)(C(=O)O)CC[C@]3(C)CC[C@]12C
dose: 0.19 mg/kg/injection, schedule: Q01DX009 (ip), vehicle: saline
  T/C: 101 % of control
dose: 0.39 mg/kg/injection, schedule: Q01DX009 (ip), vehicle: saline
  T/C: 101 % of control
dose: 0.78 mg/kg/injection, schedule: Q01DX009 (ip), vehicle: saline
  T/C: 97 % of control
dose: 1.56 mg/kg/injection, schedule: Q01DX009 (ip), vehicle: saline
  T/C: 87 % of control
dose: 3.12 mg/kg/injection, schedule: Q01DX009 (ip), vehicle: suspension in saline
  T/C: 91 % of control

## CCOC(=O)C(CCBr)SC (stereo not given)
dose: 25.0 mg/kg/injection, schedule: Q01DX009 (ip), vehicle: saline with Tween-80
  T/C: 99 % of control
[2]
  T/C: 100 % of control
[3]
  T/C: 99 % of control

## C=C(C)C1CCc2c(C)cc(OC(C)=O)c(C(=O)OC(C)=O)c2C1 (stereo not given)
dose: 5.0 mg/kg/injection, schedule: Q01DX005 (ip), vehicle: saline
  T/C: 107 % of control
dose: 10.0 mg/kg/injection, schedule: Q01DX005 (ip), vehicle: saline
  T/C: 105 % of control
dose: 20.0 mg/kg/injection, schedule: Q01DX005 (ip), vehicle: saline
  T/C: 105 % of control
